# What was measured:
# [1] = biological target: Cyclin-dependent kinase 7/ cyclin H (Homo sapiens, UniProt P50613); assay: Inhibition of human recombinant CDK7/cyclin H expressed in baculovirus-infected insect cells
# CDK9/cyclin T1 = CDK9/cyclin T1 (Homo sapiens, UniProt P50750); assay: Inhibition of human recombinant CDK9/cyclin T expressed in baculovirus-infected insect cells
# SK-MEL-28 = assay: Antiproliferative activity against human SK-MEL-28 cells after 72 hrs by ViaLight assay; format: functional; conditions: SK-MEL-28, 72 h
# UACC-257 = assay: Antiproliferative activity against human UACC257 cells after 72 hrs by ViaLight assay; format: functional; conditions: UACC-257, 72 h
# OVCAR-8 = assay: Antiproliferative activity against human OVCAR8 cells after 72 hrs by ViaLight assay; format: functional; conditions: OVCAR-8, 72 h
# BT-549 = assay: Antiproliferative activity against human BT549 cells after 72 hrs by ViaLight assay; format: functional; conditions: BT-549, 72 h
# HeLa = assay: Antiproliferative activity against human HeLa cells after 72 hrs by ViaLight assay; format: functional, cell-based
# HEK-293T = assay: Antiproliferative activity against human 293T cells after 72 hrs by ViaLight assay; format: functional, cell-based
# U-937 = assay: Antiproliferative activity against human U937 cells after 72 hrs by ViaLight assay; format: functional, cell-based
# SW-620 = assay: cells; conditions: Homo sapiens, SW-620, 72 h
# Description: Antiproliferative activity against human SW620 cells after 72 hrs by ViaLight assay
# [2] = read-out: LC50 (the source's name)
# [3] = read-out: pLC50 (the source's name) (converted)
# Cyclin-dependent kinase 7/ cyclin H, sequence (P51946 whole entry): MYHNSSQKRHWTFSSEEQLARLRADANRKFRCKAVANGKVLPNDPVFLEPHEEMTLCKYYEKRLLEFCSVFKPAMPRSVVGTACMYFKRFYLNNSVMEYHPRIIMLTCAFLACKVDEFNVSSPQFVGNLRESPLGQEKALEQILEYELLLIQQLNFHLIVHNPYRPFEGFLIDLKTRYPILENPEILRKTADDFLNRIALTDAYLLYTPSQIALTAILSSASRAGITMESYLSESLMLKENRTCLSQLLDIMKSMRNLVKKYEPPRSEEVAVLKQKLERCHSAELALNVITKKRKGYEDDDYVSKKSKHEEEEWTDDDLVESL
# Cyclin-dependent kinase 7/ cyclin H, sequence (P50613 whole entry): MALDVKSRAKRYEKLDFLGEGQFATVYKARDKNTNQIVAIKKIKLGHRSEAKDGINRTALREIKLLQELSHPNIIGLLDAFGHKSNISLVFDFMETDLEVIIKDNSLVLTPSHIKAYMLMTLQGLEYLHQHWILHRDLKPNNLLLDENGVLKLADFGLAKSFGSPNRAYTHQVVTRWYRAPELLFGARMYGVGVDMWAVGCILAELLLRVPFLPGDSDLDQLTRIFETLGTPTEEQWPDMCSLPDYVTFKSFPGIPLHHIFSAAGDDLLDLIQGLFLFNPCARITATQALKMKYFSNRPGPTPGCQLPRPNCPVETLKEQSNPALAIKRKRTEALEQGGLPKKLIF
# CDK9/cyclin T1, sequence (O60563 whole entry): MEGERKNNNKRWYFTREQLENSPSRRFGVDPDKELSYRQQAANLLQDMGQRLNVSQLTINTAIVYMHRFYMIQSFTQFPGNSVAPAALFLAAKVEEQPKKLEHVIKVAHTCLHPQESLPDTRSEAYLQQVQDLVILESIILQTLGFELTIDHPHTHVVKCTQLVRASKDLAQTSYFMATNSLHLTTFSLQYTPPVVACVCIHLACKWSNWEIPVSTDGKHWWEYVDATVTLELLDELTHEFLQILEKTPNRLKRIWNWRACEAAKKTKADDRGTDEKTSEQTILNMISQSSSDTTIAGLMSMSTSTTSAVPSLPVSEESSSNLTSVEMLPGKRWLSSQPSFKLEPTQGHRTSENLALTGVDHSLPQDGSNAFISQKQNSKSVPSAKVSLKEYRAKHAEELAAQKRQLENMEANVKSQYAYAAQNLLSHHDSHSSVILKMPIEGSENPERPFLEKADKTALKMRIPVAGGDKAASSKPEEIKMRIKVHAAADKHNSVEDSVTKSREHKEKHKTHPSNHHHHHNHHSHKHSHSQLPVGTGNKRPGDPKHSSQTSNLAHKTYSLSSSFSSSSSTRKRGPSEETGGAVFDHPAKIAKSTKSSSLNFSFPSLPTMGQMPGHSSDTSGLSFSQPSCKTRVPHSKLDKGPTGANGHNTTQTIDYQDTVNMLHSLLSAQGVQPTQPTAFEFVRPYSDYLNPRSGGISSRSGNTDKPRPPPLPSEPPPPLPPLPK
# CDK9/cyclin T1, sequence (P50750 whole entry): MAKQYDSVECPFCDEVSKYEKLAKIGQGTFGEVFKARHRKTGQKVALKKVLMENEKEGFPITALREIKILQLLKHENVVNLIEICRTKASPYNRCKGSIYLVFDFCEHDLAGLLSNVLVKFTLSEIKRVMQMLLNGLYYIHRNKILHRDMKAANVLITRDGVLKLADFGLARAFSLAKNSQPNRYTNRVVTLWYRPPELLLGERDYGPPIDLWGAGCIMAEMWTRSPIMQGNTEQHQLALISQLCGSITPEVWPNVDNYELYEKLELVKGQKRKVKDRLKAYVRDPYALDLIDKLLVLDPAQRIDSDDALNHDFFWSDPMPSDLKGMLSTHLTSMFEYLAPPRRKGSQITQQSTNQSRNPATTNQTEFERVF
smiles,measurement,setting,value
CC[C@H](CO)Nc1nc(NCc2ccccc2)n2ncc(C(C)C)c2n1,IC50,[1],0.5 µM
same,IC50,CDK9/cyclin T1,0.043 µM
same,GI50,SK-MEL-28; read-out: GI50,1.16 µM
same,CC50,SK-MEL-28; [2],16.9 µM
same,TGI,SK-MEL-28; read-out: TGI,3.82 µM
same,GI50,SK-MEL-28; read-out: pGI50 (converted),1.15 µM
same,CC50,SK-MEL-28; [3],17 µM
same,TGI,SK-MEL-28; read-out: pTGI (converted),3.8 µM
same,GI50,UACC-257; read-out: GI50,3.56 µM
same,CC50,UACC-257; [2],> 100 µM
same,TGI,UACC-257; read-out: TGI,15 µM
same,GI50,UACC-257; read-out: pGI50 (converted),3.24 µM
same,CC50,UACC-257; [3],100 µM
same,TGI,UACC-257; read-out: pTGI (converted),24 µM
same,GI50,OVCAR-8; read-out: GI50,2.15 µM
same,CC50,OVCAR-8; [2],> 100 µM
same,TGI,OVCAR-8; read-out: TGI,54.8 µM
same,GI50,OVCAR-8; read-out: pGI50 (converted),2.45 µM
same,CC50,OVCAR-8; [3],100 µM
same,TGI,OVCAR-8; read-out: pTGI (converted),55 µM
same,GI50,BT-549; read-out: GI50,1.56 µM
same,CC50,BT-549; [2],36.1 µM
same,TGI,BT-549; read-out: TGI,5.29 µM
same,GI50,BT-549; read-out: pGI50 (converted),2.45 µM
same,CC50,BT-549; [3],36.3 µM
same,TGI,BT-549; read-out: pTGI,5.25 µM
same,Activity,HeLa,Dose-dependent effect
same,Activity,HEK-293T,Dose-dependent effect
same,Activity,U-937,Dose-dependent effect
same,GI50,SW-620,1.38 µM
same,TGI,SW-620,5.56 µM
same,CC50,SW-620; read-out: LC50,> 100 µM
same,GI50,SW-620; read-out: pGI50 (converted),1.12 µM
same,CC50,SW-620; read-out: pLC50 (converted),100 µM
same,TGI,SW-620; read-out: pTGI,5.5 µM

# Source: ChEMBL document CHEMBL1143353, “Pyrazolo[1,5-a]-1,3,5-triazine as a purine bioisostere: access to potent cyclin-dependent kinase inhibitor (R)-roscovitine analogue” (J Med Chem, 2009)
